From article PMC10035370, “Targeting Tumor Angiogenesis with the Selective VEGFR-3 Inhibitor EVT801 in Combination with Cancer Immunotherapy” (Cancer Research Communications, 2022)

Experiments:
VEGFR-1 = target: T1, VEGFR-1 (Homo sapiens, UniProt P17948); experiment: Biochemical kinase assay (in vitro assay), VEGFR-1; settings: read-out: IC50 in biochemical assays, VEGFR-1
T1 construct: The VEGFR-1 tyrosine kinase domain was obtained from Upstake; purchased Upstake (so in the source)
T1 sequence (P17948 827-1158 limits assumed): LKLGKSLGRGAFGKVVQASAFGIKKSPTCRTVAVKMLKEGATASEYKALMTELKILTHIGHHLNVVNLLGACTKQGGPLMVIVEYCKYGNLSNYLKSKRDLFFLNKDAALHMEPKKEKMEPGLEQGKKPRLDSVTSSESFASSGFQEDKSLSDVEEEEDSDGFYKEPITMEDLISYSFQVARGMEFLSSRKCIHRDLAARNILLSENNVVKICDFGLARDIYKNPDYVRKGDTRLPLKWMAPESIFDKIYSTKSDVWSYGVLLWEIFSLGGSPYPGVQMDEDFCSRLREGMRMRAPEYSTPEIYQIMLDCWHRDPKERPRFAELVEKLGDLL
Procedure: (§1) Sigma protein kinase assay kits were used. 125 μL per well of Poly-Glu-Tyr (PGT) solution (250 μg/mL of PGT in PBS without Ca^2+, Mg^2+ and sodium bicarbonate) was added in a 96-well plate and overnight incubation was performed at 37 °C. The day after, coating solution was removed and wells were washed with 300 μL of PBS-Tween-20 0.05 %. The washing buffer was removed and wells were dried for 2 h at 37 °C. 90 μL of the kinase buffer was supplemented with ATP (30 μM for VEGFR-1 and VEGFR-3, and 15 μM for VEGFR-2), and the compound (EVT801 or SAR401849 at the indicated concentration or 1 % DMSO for the vehicle control). The phosphorylation reaction was initiated by the addition of 20 μL of kinase buffer without ATP supplemented with 100 ng of the tyrosine kinase (or without tyrosine kinase as control). Plates were incubated with gentle agitation at room temperature for 30 min. After 3 washes with 300 μL of washing buffer, 100 μL of phosphotyrosine specific monoclonal antibody conjugated to HRP (1:30,000) was added onto the phosphorylated PGT. Plates were incubated for 30 min at room temperature under gentle agitation. Then, 3 washes with 300 μL of washing buffer were performed. […] After 7 min at room temperature, the reaction was stopped by addition of 100 μL of […], and absorbance was determined with an Endvision spectrophotometer at 492 nm.

ERK1/2 phosphorylation = experiment: VEGF-C-induced ERK1/2 phosphorylation in hLMVEC; type: cell-based; settings: Homo sapiens, read-out: IC50, inhibition of VEGF-C-induced ERK1/2 phosphorylation
Procedure: hLMVECs were plated in 6-well tissue culture plates at a density of 2 x 10^5 cells for 48 h. Cells were then serum deprived for 2 h and either stimulated or mock stimulated for 10 min with VEGFC (500 ng/mL) in the presence or absence of EVT801. Then, cells were lysed and subjected to phospho-MAPK array or to phospho-ERK ELISA according to manufacturer’s instructions.

NCI-H1703 cells = experiment: NCI-H1703 viability (ATP reduction); type: cell-based; settings: Homo sapiens, in vitro
Procedure: NCI-H1703 were seeded in 96-well plates coated with 0.3 % gelatin (5 x 10^3 cells per well) and were incubated in RPMI 0.1 % FCS with VEGF-C (300 ng/mL) or VEGF-D (300 ng/mL) in the absence or presence of increasing doses of EVT801. After 5 days, viable cells were quantified with the cell Titer-glo luminescent cell viability assay (Promega) as previously described (1).

Rip1-Tag2 tumors = experiment: Rip1-Tag2 transgenic mouse model; type: in vivo, mice
Procedure: The Rip1-Tag2/transgenic mouse models were used as reported previously ([29]). Briefly, treatment of mice started at the age of 12 weeks. Mice were treated daily for 16 days, and volume of each tumor was measured and calculated as described for the 4T1 mammary carcinoma mouse model below. The tumor burden was calculated as the sum of individual tumor volumes for each mouse. For the survival study, daily treatment started at the age of 12 weeks, and mice were monitored daily to detect moribund mice for euthanasia. CD31-positive vessel density within the tumors were quantified by density index (1 vessel/mm^2) measured using the Definiens software. Individual density indices were plotted as the mean ± SD for each group. Statistical significance was assessed by Kruskall–Wallis followed by Dunnet multiple comparison test.

Pharmacokinetics in rats = type: in vivo; settings: rat, plasma; Sprague-Dawley rats, 10 mg/kg; read-out: T1/2 in plasma (converted)
Procedure: Plasma samples and tumor homogenates were mixed with the precipitant solution (acetonitrile containing internal standard). The supernatant (180 µL) was transferred in a 96-well plate and 5 µL were injected. EVT801 and its main metabolite were quantified by LC-MS/MS following standard conditions.

[1] = Blood pressure in telemetered rat model of hypertension; type: in vivo; settings: dose as high as 500 mg/kg, single oral administration
Procedure: Supplementary Figure 8. EVT801 and sorafenib show opposing effects on blood pressure in rats. (A) Monitoring of the blood pressure over 24 h after single oral administration of 100 mg/kg EVT801 or 500 mg/kg of EVT801, compared to animals treated with vehicle. (B) Monitoring of the blood pressure over 24 h after single oral administration of 10 mg/kg sorafenib, 30 mg/kg sorafenib or 100 mg/kg of sorafenib, compared to animals treated with vehicle.

VEGFR-2 = VEGFR-2 (Homo sapiens, UniProt P35968); experiment: Biochemical kinase assay (in vitro assay), VEGFR-2; set-up: expressed in transfected cells; host or cells: HEK293T; settings: read-out: IC50 in biochemical assays, VEGFR-2
Procedure: as §1

Sequence of VEGFR-2 (P35968 20-1356): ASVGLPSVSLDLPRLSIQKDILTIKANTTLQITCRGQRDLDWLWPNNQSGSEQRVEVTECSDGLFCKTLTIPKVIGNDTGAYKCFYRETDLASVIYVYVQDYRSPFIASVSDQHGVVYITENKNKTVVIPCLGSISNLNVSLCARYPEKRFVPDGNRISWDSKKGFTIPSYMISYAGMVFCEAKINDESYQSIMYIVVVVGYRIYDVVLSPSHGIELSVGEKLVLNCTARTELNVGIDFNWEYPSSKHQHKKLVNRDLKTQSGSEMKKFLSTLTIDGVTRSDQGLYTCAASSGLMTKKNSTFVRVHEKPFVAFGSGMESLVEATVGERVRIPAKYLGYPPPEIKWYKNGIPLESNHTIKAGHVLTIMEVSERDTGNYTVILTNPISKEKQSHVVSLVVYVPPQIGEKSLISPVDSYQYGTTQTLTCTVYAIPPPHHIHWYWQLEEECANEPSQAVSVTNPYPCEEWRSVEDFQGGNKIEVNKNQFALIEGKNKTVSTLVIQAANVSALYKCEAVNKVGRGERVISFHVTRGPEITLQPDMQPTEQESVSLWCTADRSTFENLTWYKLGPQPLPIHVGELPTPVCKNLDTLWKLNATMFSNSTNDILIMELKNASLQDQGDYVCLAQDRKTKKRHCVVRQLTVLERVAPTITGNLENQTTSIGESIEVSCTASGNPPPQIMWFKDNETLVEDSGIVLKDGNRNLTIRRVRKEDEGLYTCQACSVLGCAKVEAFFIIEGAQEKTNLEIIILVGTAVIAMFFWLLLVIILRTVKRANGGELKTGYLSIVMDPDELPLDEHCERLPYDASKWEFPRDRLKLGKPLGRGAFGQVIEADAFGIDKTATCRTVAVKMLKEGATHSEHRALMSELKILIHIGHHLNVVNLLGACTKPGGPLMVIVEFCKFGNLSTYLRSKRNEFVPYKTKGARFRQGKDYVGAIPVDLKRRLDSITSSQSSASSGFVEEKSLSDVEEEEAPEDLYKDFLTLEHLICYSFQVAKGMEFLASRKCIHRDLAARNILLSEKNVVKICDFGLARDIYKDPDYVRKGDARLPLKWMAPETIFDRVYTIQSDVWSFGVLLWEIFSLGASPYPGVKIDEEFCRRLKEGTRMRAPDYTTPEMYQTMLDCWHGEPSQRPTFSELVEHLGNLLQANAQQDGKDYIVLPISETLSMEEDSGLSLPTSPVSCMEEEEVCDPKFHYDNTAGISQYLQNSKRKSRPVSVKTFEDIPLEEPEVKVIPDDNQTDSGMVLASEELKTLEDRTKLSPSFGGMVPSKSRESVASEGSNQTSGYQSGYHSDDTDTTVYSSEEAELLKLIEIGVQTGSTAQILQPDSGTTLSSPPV

Question: Which IC50 (VEGFR-1) does the source give for CCn1c(N)c(-c2ncc[nH]2)c(=O)c2ccc(C#C[C@@](C)(O)COC)nc21 [EVT801] here?
Answer: 396 nM

Question: And the IC50 (ERK1/2 phosphorylation)?
Answer: 13 nM

Question: And the IC50 (NCI-H1703 cells)?
Answer: 109 nM

Question: What about the “T/C ratio, tumor volume” value (Rip1-Tag2 tumors; 30 mg/kg/day, 2 weeks) of the same compound?
Answer: 63%

Question: What about the “average number of tumors per pancreas” value (Rip1-Tag2 tumors; 30 mg/kg/day, 2 weeks) of the same compound?
Answer: three

Question: And the “reduction in tumor volume” value (Rip1-Tag2 tumors; 30 mg/kg/day, 2 weeks)?
Answer: 37%

Question: And the “reduction of number of pancreatic tumors” value (Rip1-Tag2 tumors; 30 mg/kg/day, 2 weeks)?
Answer: 67%

Question: What about the “T/C ratio, tumor volume” value (Rip1-Tag2 tumors; 100 mg/kg/day, 2 weeks) of the same compound?
Answer: 16%

Question: What about the “reduction of number of pancreatic tumors” value (Rip1-Tag2 tumors; 100 mg/kg/day, 2 weeks) of the same compound?
Answer: 91%

Question: What about the “overall survival of the mice” value (Rip1-Tag2 tumors; 30 and 100 mg/kg/day) of the same compound?
Answer: dose-dependently increased

Question: And the half-life (Pharmacokinetics in rats)?
Answer: 2.4 h

Question: What about the “effect on blood pressure” value [1] of the same compound?
Answer: did not increase blood pressure

Question: And the IC50 (VEGFR-2)?
Answer: 130 nM
